We go through one substance from patent US20020146823A1, “Method for promoting hematopoietic and mesenchymal cell proliferation and differentiation” (The University of Southern California, priority 1997, published 2002).

In test [1] the test system is human peripheral blood mononuclear cells (PBMC). Kind of test: Respiratory burst (hydrogen peroxide generation) in human PBMC. The class given is cell-based. To be noted: alone and in response to PMA; 4 hours exposure; five donors. The protocol:
(§1) The respiratory burst of leukocytes (macrophages and polymorphonuclear neutrophils) is one component of the mediator system used to kill bacteria. As with phagocytosis, the level of this respiratory burst activity in resident macrophages is low. […] Studies were conducted to assess the effect of in vitro exposure of murine or rat peritoneal macrophages and human peripheral blood mononuclear cells (PBMC) to various concentrations of AII on the capacity to generate hydrogen peroxide via the respiratory burst system. For the human studies, five different donors were examined.
(§2) The murine or rat peritoneal cells were harvested by lavage with 5-15 ml of cold PBS with 0.5% bovine serum albumin. The human PBMC were harvested by venipuncture from normal human volunteers and isolated from peripheral blood by Ficoll Hypaque density centrifugation. After isolation, the cells were resuspended at 1×10^6 cells/ml and placed at 100 μl per well into 96 well plates. The cells were incubated with various concentrations of AII or AII analogues and fragments for 4 hours at 37° C. The cells were then preloaded with a fluorescent probe for hydrogen peroxide, 2,7 dichlorofluorescein acetate, which is nonfluorescent in the absence of hydrogen peroxide. Fifteen minutes later, 10 ng/ml of phorbol myristate acetate (+PMA) or PBS (−PMA) was added to stimulate the production of hydrogen peroxide. One hour after stimulation the level of fluorescence produced was measured on a Cytofluor 2350 multiwell fluorometer.

The subject of test [2] is Rat Peritoneal Macrophages. Nature of the test: Phagocytic capability of rat peritoneal macrophages (opsonized yeast ingestion). The class given is cell-based, Sprague Dawley rats. The protocol: Resident peritoneal macrophages have very little phagocytic activity. Exposure of macrophages to inflammatory or activating agents will increase this macrophage function. Resident peritoneal macrophages were harvested from C57B1/6 mice or Sprague Dawley rats and resuspended at a concentration of 1×10^6 cells/ml in phosphate buffered saline (PBS). Five separate 0.5 ml cell aliquots were placed on a glass coverslip in a 35 mm petri dish. Prior to incubation, either 0.5 ml of PBS, AII, or AII analogues or fragments at between 1-1000 ug/ml final concentration was added to the individual cover slips. The dishes containing the cover slips were then incubated at 37° C. for 4 hours, after which the cover slips were washed 3 to 6 times with PBS. Opsonized yeast particles (Sigma Chemical Co.) (yeast opsonized with adult serum from the same species as that under study) were added to the cover slips and incubated for 2 hours, after which the cover slips were again washed with PBS and inverted onto a glass slide. The number of macrophages that ingested yeast and the number of yeast per macrophage ingested was then determined microscopically. At least 100 macrophages per coverslip were counted. The data from this study are summarized in Tables 3 and 4 and FIGS. 1 and 2.

Test [3] has as its system murine peritoneal macrophages. Nature of the test: Respiratory burst (hydrogen peroxide generation) in murine peritoneal macrophages. The class given is cell-based. To be noted: alone and in response to PMA; 4 hours exposure. The method, then: as §1
as §2, with “Fifteen minutes later, 10 ng/ml of phorbol myristate acetate (+PMA) or PBS (−PMA) was added to stimulate the production of hydrogen peroxide.” left out

Test [4] concerns murine bone marrow stem cells. The following applies: cited from earlier work.
In test [5] the test system is murine mesenchymal stem cells. Kind of test: GM-CSF secretion by mouse mesenchymal stem cells (ELISA). It is filed as cell-based, C57B1/6 mice. To be noted: 0.01 to 100 μg/ml; 24, 48 or 72 hours. The method, then:
One factor whose production is induced during differentiation of mesenchymal stromal cells is granulocyte-macrophage-colony stimulating factor (GM-CSF). Therefore, the effect of AII on the differentiation of mesenchymal cells was assessed by the production of colony stimulating factors, specifically GM-CSF, into the culture supernatant.
Bone marrow cells were harvested from the femur and tibia of C57B1/6 mice (Battin and Kingdom, Gilroy, Calif.) with saline containing 2% fetal calf serum. Thereafter, the red blood cells were lysed by brief exposure to a hypotonic ammonium chloride solution. The nucleated cells were then resuspended in 3 ml of […] phosphate buffered saline (PBS; pH 7.2) and rapidly layered over 7 ml of Percoll (70% Percoll gradient separation). This combination of nucleated bone marrow cells and Percoll were centrifuged at 1800 rpm for 20 minutes. After centrifugation, the cells in the upper 25% of the Percoll gradient were harvested and washed 3 times with PBS to remove excess Percoll. The cells were then resuspended at 4×10^5 cells/ml in alpha minimal essential medium containing 10% horse serum, 10% fetal calf serum and 5×10^−5 M 2-mercaptoethanol. […]
After all samples were collected, the level of GM-CSF in the supernatant was measured by Quantikine ELISA (R & D Systems, Minneapolis, Minn.) according to the manufacturer's instructions.

For “Asp-Arg-Val-Tyr-Ile-His-Pro-Phe (DRVYIHPF; printed: Asp-Arg-Val-Tyr-Ile-His-Pro-Phe) [AII, octapeptide present in humans and other species; known pressor agent, commercially available]”, the “ability of leukocytes to generate hydrogen peroxide” value in test [1] is “increased the ability of leukocytes to generate hydrogen peroxide both alone and in response to stimulation with PMA”. In test [2] (peptide 100 μg/ml), the “#/Cell” value is 1.14, the “% w/Yeast” value is reported as 35.7%, the “Number of Macrophages with Yeast (Yeast Number) 0” value is given as 90 and the “Number of Macrophages with Yeast (Yeast Number) 1-3” value turned out to be 30. In addition, the “Number of Macrophages with Yeast (Yeast Number) ≧7” value in test [2] (peptide 100 μg/ml) stood at 0. In test [2] (peptide 1000 μg/ml), the “#/Cell” value is 2.86, the “% w/Yeast” value is 70.4%, the “Number of Macrophages with Yeast (Yeast Number) 0” value stood at 50 and the “Number of Macrophages with Yeast (Yeast Number) 1-3” value worked out at 54. For the same substance, in test [2] (peptide 1000 μg/ml), the “Number of Macrophages with Yeast (Yeast Number) 4-6” value is 40 and the “Number of Macrophages with Yeast (Yeast Number) ≧7” value stood at 25. In addition, the “ability of leukocytes to generate hydrogen peroxide” value in test [3] is “increased the ability of leukocytes to generate hydrogen peroxide both alone and in response to stimulation with PMA”. Also, the formation of colonies entry in test [4] (absence of exogenous colony stimulating factors) is on record as “increases the formation of colonies”. Besides, the “number and size of colonies formed” value in test [4] (lineage-negative bone marrow cells expressing Sca1) is “increased the number and size of colonies formed only in the presence of exogenous colony stimulating factors”. Also, the “production of GM-CSF” value in test [5] is on record as “induced an increase”.
